Values joined by “and” are separate entries in the source; they are usually repeats but may differ in a detail not shown here. Equal values may be shown once.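 Values below derive from 48-hour exposures of cells grown in 96-well plates, with endpoints linearly interpolated between the two concentrations bracketing the appropriate inhibition level. GI50 is the concentration that inhibits growth by half. TGI: concentration producing complete growth inhibition.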
What was measured:
Assay in all cases: NCI tumour cell line growth inhibition, 48 h
UO-31 renal = tested on: UO-31 renal
UACC-62 melanoma = tested on: UACC-62 melanoma
A498 renal = tested on: A498 renal
HT29 colon = tested on: HT29 colon
NCI-H522 lung = tested on: NCI-H522 lung
SK-MEL-2 melanoma = tested on: SK-MEL-2 melanoma
SK-MEL-5 melanoma = tested on: SK-MEL-5 melanoma
CCRF-CEM leukemia = tested on: CCRF-CEM leukemia
IGROV1 ovarian = tested on: IGROV1 ovarian
SK-MEL-28 melanoma = tested on: SK-MEL-28 melanoma

Structure (SMILES)	GI50 (UO-31 renal)	TGI (UO-31 renal)	GI50 (UACC-62 melanoma)	TGI (UACC-62 melanoma)	GI50 (A498 renal)	TGI (A498 renal)	GI50 (HT29 colon)	TGI (HT29 colon)	GI50 (NCI-H522 lung)	TGI (NCI-H522 lung)	GI50 (SK-MEL-2 melanoma)	TGI (SK-MEL-2 melanoma)	GI50 (SK-MEL-5 melanoma)	TGI (SK-MEL-5 melanoma)	GI50 (CCRF-CEM leukemia)	GI50 (IGROV1 ovarian)	TGI (IGROV1 ovarian)	GI50 (SK-MEL-28 melanoma)	TGI (SK-MEL-28 melanoma)	TGI (CCRF-CEM leukemia)
NC(=O)c1c(NC(=O)c2cccc(C(F)(F)F)c2)sc2c1CCC(=O)C2	0.291 µM	1.19 µM	0.368 µM	1.66 µM	3.33 µM	> 100 µM	0.378 µM	> 100 µM	0.299 µM	1.62 µM	2.06 µM	6.25 µM	1.18 µM	2.95 µM	0.163 µM	0.468 µM	3.47 µM	1 µM	15.2 µM	
COc1ccc(-c2cn(-c3cc(OC)c(OC)c(OC)c3)c(=O)n2-c2ccccc2)cc1	> 100 µM	> 100 µM	53 µM	> 100 µM	> 100 µM	> 100 µM	60.6 µM	> 100 µM	66.7 µM	> 100 µM	> 100 µM	> 100 µM	21.5 µM	> 100 µM	> 100 µM	27.6 µM	> 100 µM	> 100 µM	> 100 µM	> 100 µM
COC12C=C/C(=C(/C(=O)OCc3csc(SC)n3)C(=O)CCCCCCCCC3(OC)C=C/C(=C(/C(=O)OCc4cnc(SC)s4)C(=O)CCCCCCCC1)O3)O2 (centres undefined)	4.96 µM	> 100 µM	3.51 µM	35.2 µM	2.44 µM	21.8 µM	4.41 µM	> 100 µM	1.5 µM	21.1 µM	3.69 µM	16.6 µM	1.7 µM	3.56 µM	0.455 µM	3.89 µM	83.6 µM	0.955 µM	> 100 µM	> 100 µM
C/C(N=NC(=S)N1CCCCCC1)=C1\C=CC=CN1O		> 100 µM		24.6 µM		92.1 µM		> 35.6 µM		7.1 µM		18.8 µM		35.3 µM			> 53.8 µM		> 96.3 µM	4.93 µM
CC(C)c1ccc2c(c1)c(SC(C)(C)C)c(CC(C)(C)C(=O)O)n2Cc1ccc(Cl)cc1	7.72 µM	20.7 µM	11.8 µM	24 µM	10.8 µM	23.3 µM	5.75 µM	16.9 µM	6.07 µM	18.1 µM	7.5 µM	20.1 µM	9.53 µM	22.4 µM	4.27 µM	10.5 µM	23.5 µM	11.3 µM	25.1 µM	29.1 µM
CCOC(=O)c1cc(C(=O)O)c(=O)n2c1[nH]c1ccccc12		87.7 µM		> 100 µM		> 100 µM		> 100 µM		> 100 µM		> 100 µM		> 100 µM			> 100 µM		> 100 µM	> 100 µM
N#Cc1c(-c2ccc(Cl)cc2)csc1NC(=O)Nc1cccc(C(F)(F)F)c1	1.8 µM	5.48 µM	2.92 µM	12 µM	1.79 µM	4.3 µM	2.5 µM	10.5 µM	1.65 µM	5.99 µM	2 µM	4.57 µM	1.74 µM	3.18 µM	3.17 µM	3.51 µM	14.2 µM	2.65 µM	8.97 µM	12 µM
COc1ccc2c(c1)c(-c1cc(-c3cn(C)c4ccc(OC)cc34)[nH]n1)cn2C	> 100 µM	> 100 µM	> 100 µM	> 100 µM	> 100 µM	> 100 µM	> 100 µM	> 100 µM	> 100 µM	> 100 µM	> 100 µM	> 100 µM	> 100 µM	> 100 µM	> 100 µM	> 100 µM	> 100 µM	> 100 µM	> 100 µM	> 100 µM
O=C(NOC(=O)c1ccc([N+](=O)[O-])cc1)c1ccc(Cl)cc1		> 100 µM		> 100 µM		> 100 µM		> 100 µM		82.2 µM		> 100 µM		> 100 µM			59.4 µM		> 100 µM	> 100 µM
Cc1ccc(-c2cc(C(Cl)Cl)on2)cc1	49.5 µM	> 100 µM	66.8 µM	> 100 µM	42.7 µM	> 100 µM	26.9 µM	> 100 µM	48.5 µM	> 100 µM	> 100 µM	> 100 µM	25.3 µM	> 100 µM	40.9 µM	> 100 µM	> 100 µM	> 100 µM	> 100 µM	> 100 µM
O=C(O)C(CS)N=Cc1nc(-c2ccccc2)oc1O (centres undefined)		> 100 µM		> 100 µM		> 100 µM		> 100 µM		> 100 µM		> 100 µM		> 100 µM			> 100 µM		> 100 µM	> 100 µM
COc1ccc2nc3cc(Cl)ccc3c(Nc3ccc(O)c(CN4CCCC4)c3)c2c1	1.83 µM	3.7 µM	1.71 µM	3.51 µM	2.89 µM	12.2 µM	1.32 µM	3.44 µM	1.67 µM	3.79 µM	1.99 µM	3.77 µM	1.82 µM	3.24 µM	3.06 µM	2.6 µM	6.67 µM	1.98 µM	3.46 µM	14.6 µM
CC(=O)c1c(Nc2ccc(F)c(F)c2F)[nH]c2c(F)cc(F)cc2c1=O	0.123 µM	0.742 µM	0.233 µM	0.836 µM	0.206 µM	0.575 µM	0.356 µM	17.5 µM	0.285 µM	16.6 µM	0.322 µM	1.35 µM	0.188 µM	0.431 µM	0.368 µM	0.396 µM	> 47.4 µM	0.356 µM	3.57 µM	> 100 µM
Oc1cccc(-c2nc(N3CCOCC3)c3oc4ncccc4c3n2)c1	0.0354 µM and 0.0315 µM	0.571 µM and 0.449 µM	1.05 µM and 0.471 µM	3.03 µM and 1.64 µM	1.96 µM	9.35 µM and 3.98 µM	6.52 µM and 8.37 µM	> 100 µM	0.0654 µM and 0.0819 µM	0.666 µM and 4.67 µM	0.147 µM and 0.295 µM	0.641 µM and 1.92 µM	0.263 µM and 0.346 µM	1.2 µM and 2.44 µM	0.517 µM and 0.461 µM	0.327 µM and 0.425 µM	1.47 µM and 2.23 µM	0.152 µM and 0.0882 µM	2.22 µM	> 100 µM

— PubChem BioAssay (NCI)
